Measurements as given in the NIST ThermoML archive (doi:10.1016/j.jct.2019.04.014).

Columns and labels:
[1] = Boiling temperature at pressure P; settings: 94.4 kPa; Liquid; DSC
[2] = for vapor or sublimation pressure: Liquid, Determined from thermal gravimetric analysis data; for Normal melting temperature: Crystal, DTA
[3] = Molar enthalpy of transition or fusion; settings: Crystal; DSC

Cc1ccc[n+]([O-])c1 [3-picoline N-oxide]
Settings	Boiling temperature at pressure P [°C]	Molar enthalpy of transition or fusion [kcal/mol]	Normal melting temperature [°C]
[1]	283.80	–	–
[2]	–	–	37.10
[3]	–	2.52	–

[2]
Settings	vapor or sublimation pressure [kPa]
433.15 K	4.26
435.15 K	4.48
440.15 K	5.4
443.15 K	5.93
445.15 K	6.29
447.15 K	6.89
450.15 K	7.47
453.15 K	8.23
455.15 K	8.91
457.15 K	9.28
460.15 K	10.15
463.15 K	10.93
465.15 K	11.69
467.15 K	12.28
470.15 K	13.42
473.15 K	14.64
475.15 K	15.17
477.15 K	16.14
480.15 K	17.37
483.15 K	18.4
485.15 K	19.19
487.15 K	20.28
490.15 K	21.69
493.15 K	23.24
495.15 K	24.75
497.15 K	25.56
500.15 K	27.36
503.15 K	29.43
505.15 K	31
507.15 K	32.53
510.15 K	35.18
513.15 K	37.62
515.15 K	38.66
517.15 K	40.64

NC(=O)c1ccc[n+]([O-])c1 [nicotinamide N-oxide]
Settings	Normal melting temperature [°C]
[2]	289.50

Cc1cc[n+]([O-])cc1 [4-methylpyridine-N-oxide]
Settings	Boiling temperature at pressure P [°C]	Molar enthalpy of transition or fusion [kcal/mol]	Normal melting temperature [°C]
[1]	287.30	–	–
[2]	–	–	184.60
[3]	–	4.51	–

O=C(O)c1ccccc1 [benzoic acid]
Settings	Normal melting temperature [°C]
[2]	121.60

O=C(O)c1cc[n+]([O-])cc1 [4-pyridinecarboxylic acid N-oxide]
Settings	Molar enthalpy of transition or fusion [kcal/mol]	Normal melting temperature [°C]
[2]	–	268.50
[3]	5.76	–

O=C(O)c1cccc[n+]1[O-] [picolinic acid N-oxide]
Settings	Boiling temperature at pressure P [°C]	Molar enthalpy of transition or fusion [kcal/mol]	Normal melting temperature [°C]
[1]	267.60	–	–
[2]	–	–	163.80
[3]	–	7.21	–

[O-][n+]1ccccc1S [2-mercaptopyridine N-oxide]
Settings	Molar enthalpy of transition or fusion [kcal/mol]	Normal melting temperature [°C]
[2]	–	71.20
[3]	3.18	–

O=C(O)c1ccc[n+]([O-])c1 [3-pyridinecarboxylic acid N-oxide]
Settings	Molar enthalpy of transition or fusion [kcal/mol]	Normal melting temperature [°C]
[2]	–	258.30
[3]	5.63	–

[O-][n+]1cccc(O)c1 [3-hydroxypyridine-N-oxide]
Settings	Molar enthalpy of transition or fusion [kcal/mol]	Normal melting temperature [°C]
[2]	–	189.70
[3]	4.5	–

Cc1cc(C)c[n+]([O-])c1 [3,5-dimethylpyridine N-oxide]
Settings	Boiling temperature at pressure P [°C]	Molar enthalpy of transition or fusion [kcal/mol]	Normal melting temperature [°C]
[1]	291.70	–	–
[2]	–	–	101.30
[3]	–	2.96	–

[O-][n+]1cccc2ccccc21 [quinoline 1-oxide]
Settings	Molar enthalpy of transition or fusion [kcal/mol]	Normal melting temperature [°C]
[2]	–	55.40
[3]	2.45	–

O=[N+]([O-])c1cc[n+]([O-])cc1 [4-nitropyridine N-oxide]
Settings	Molar enthalpy of transition or fusion [kcal/mol]	Normal melting temperature [°C]
[2]	–	160.80
[3]	4.18	–

[O-][n+]1ccccc1 [pyridine N-oxide]
Settings	Boiling temperature at pressure P [°C]	Molar enthalpy of transition or fusion [kcal/mol]	Normal melting temperature [°C]
[1]	267.60	–	–
[2]	–	–	63.80
[3]	–	2.31	–

[2]
Settings	vapor or sublimation pressure [kPa]
425.15 K	2.5
427.15 K	2.66
433.15 K	3.33
435.15 K	3.59
440.15 K	4.28
443.15 K	4.86
445.15 K	5.22
447.15 K	5.5
450.15 K	6.19
453.15 K	6.84
455.15 K	7.36
457.15 K	7.89
460.15 K	8.88
463.15 K	9.76
465.15 K	10.41
467.15 K	11.15
470.15 K	12.44
473.15 K	13.57
475.15 K	14.4
477.15 K	15.28
480.15 K	16.58
